DC50 and Dmax data for nine molecules are collected here from US20250059198A1, “BRM DEGRADING COMPOUNDS AND ASSOCIATED METHODS OF USE” (Arvinas Operations, Inc., priority 2021, published 2025).

For the experiment, the target named is T1, BRM (Homo sapiens, UniProt P51531).
T1 construct: Western Blot Screen of BRM Degradation in SW1573 Cells; endogenous in cells; host or cells: SW1573 cells
In words: BRM degradation (Dmax and DC50) in SW1573 cells, Western blot screen / In-Cell Western screen. The format is cell-based. The settings on record: overnight (18-20 hours) treatment; for Dmax: read-out: Dmax (%)** (% degraded). Put shortly:
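Dmax and DC50 were derived from BRM levels normalised to an alpha-tubulin control, measured by chemiluminescent Western blotting of lysates or by PFA-fixed In-Cell Western on LI-COR Odyssey. SW1573 cells received compound overnight (18–20 h, 0.1% DMSO final).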
On the technique in general: A western blot detects proteins with antibodies after separation by electrophoresis.

T1 sequence (P51531 whole entry): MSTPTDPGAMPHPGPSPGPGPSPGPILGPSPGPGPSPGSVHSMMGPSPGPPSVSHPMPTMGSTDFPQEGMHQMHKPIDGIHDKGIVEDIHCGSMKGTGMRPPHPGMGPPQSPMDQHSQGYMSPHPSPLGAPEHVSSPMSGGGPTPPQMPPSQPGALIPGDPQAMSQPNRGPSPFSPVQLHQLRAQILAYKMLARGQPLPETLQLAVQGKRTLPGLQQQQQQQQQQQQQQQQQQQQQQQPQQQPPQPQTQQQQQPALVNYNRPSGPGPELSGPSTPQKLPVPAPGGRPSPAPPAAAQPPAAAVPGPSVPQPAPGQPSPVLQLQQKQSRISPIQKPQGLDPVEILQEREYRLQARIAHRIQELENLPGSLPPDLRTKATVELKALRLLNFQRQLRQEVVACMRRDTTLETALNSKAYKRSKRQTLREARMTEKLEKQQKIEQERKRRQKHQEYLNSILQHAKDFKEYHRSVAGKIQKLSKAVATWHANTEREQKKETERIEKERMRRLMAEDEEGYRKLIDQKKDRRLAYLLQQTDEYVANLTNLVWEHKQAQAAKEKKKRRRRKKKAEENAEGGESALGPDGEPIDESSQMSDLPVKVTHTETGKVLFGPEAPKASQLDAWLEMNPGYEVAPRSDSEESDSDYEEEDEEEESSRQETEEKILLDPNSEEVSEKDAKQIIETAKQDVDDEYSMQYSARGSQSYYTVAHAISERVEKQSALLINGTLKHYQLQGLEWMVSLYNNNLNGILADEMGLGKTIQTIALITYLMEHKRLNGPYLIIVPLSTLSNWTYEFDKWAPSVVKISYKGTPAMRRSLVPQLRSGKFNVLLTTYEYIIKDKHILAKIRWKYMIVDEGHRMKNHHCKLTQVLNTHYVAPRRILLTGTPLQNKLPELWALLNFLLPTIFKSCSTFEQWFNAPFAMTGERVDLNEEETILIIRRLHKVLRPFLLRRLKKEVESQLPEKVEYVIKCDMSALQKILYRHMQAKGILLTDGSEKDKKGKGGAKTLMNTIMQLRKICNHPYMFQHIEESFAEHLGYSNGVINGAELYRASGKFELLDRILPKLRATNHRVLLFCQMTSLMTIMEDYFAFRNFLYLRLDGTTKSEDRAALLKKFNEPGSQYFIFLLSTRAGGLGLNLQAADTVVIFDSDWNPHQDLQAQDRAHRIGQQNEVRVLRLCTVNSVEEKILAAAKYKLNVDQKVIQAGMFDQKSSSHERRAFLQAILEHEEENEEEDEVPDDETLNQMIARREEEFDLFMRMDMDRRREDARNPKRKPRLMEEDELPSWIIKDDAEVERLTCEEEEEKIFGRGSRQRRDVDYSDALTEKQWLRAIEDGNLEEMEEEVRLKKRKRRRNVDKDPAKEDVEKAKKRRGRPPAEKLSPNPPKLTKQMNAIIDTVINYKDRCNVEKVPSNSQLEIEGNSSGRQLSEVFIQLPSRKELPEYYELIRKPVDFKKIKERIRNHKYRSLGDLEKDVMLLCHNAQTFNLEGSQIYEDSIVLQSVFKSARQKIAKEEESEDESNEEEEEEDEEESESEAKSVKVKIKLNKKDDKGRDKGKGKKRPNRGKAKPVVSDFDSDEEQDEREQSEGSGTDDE

Consider `Cc1ncsc1-c1ccc([C@H](C)NC(=O)[C@@H]2C[C@@H](O)CN2C(=O)[C@H](c2cc(O[C@H]3C[C@H](CN4CCC(O[C@H]5C[C@H](N6CCOC7(CCN(c8cc(-c9ccccc9O)nnc8N)CC7)C6)C5)CC4)C3)no2)C(C)C)cc1` [Compound 67, (2S,4R)-4-hydroxy-N-[(1S)-1-[4-(4-methyl-1,3-thiazol-5-yl)phenyl]ethyl]-1-[(2S)-3-methyl-2-{3-[(1r,3r)-3-({4-[(1r,3r)-3-{9-[3-amino-6-(2-hydroxyphenyl)pyridazin-4-yl]-1-oxa-4,9-diazaspiro[5.5]undecan-4-yl}cyclobutoxy]piperidin-1-yl}methyl)cyclobutoxy]-1,2-oxazol-5-yl}butanoyl]pyrrolidine-2-carboxamide], for which the DC50 lay within 10 to 30 nM and the Dmax was more than 75%.
The like results for `CC(C)[C@@H](C(=O)N1C[C@H](O)C[C@H]1C(=O)N[C@@H](C)c1ccc(-c2ccnn2C)cc1)c1cc(N2CCC(CN3CCC(O[C@H]4C[C@H](Oc5cc(/C=C(\F)c6cc(-c7ccccc7O)nnc6N)ccn5)C4)CC3)CC2)no1` [Compound 51, (2S,4R)-4-hydroxy-N-[(1S)-1-[4-(1-methyl-1H-pyrazol-5-yl)phenyl]ethyl]-1-[(2R)-3-methyl-2-{3-[4-({4-[(1r,3r)-3-[(4-{2-[3-amino-6-(2-hydroxyphenyl)pyridazin-4-yl]-2-fluoroethenyl}pyridin-2-yl)oxy]cyclobutoxy]piperidin-1-yl}methyl)piperidin-1-yl]-1,2-oxazol-5-yl}butanoyl]pyrrolidine-2-carboxamide] were, in that order, less than 2.5 nM and more than 75%.
With `Cc1ncsc1-c1ccc([C@H](C)NC(=O)[C@@H]2C[C@@H](O)CN2C(=O)[C@@H](c2cc(N3CCC(CN4CCC5(CC4)CC(N4CCO[C@H](C(C)(C)N6C7CCC6CN(c6cc(-c8ccccc8O)nnc6N)C7)C4)C5)CC3)no2)C(C)C)cc1` [Compound 94, (2S,4R)-1-[(2R)-2-{3-[4-({2-[(2S)-2-(2-{3-[3-amino-6-(2-hydroxyphenyl)pyridazin-4-yl]-3,8-diazabicyclo[3.2.1]octan-8-yl}propan-2-yl)morpholin-4-yl]-7-azaspiro[3.5]nonan-7-yl}methyl)piperidin-1-yl]-1,2-oxazol-5-yl}-3-methylbutanoyl]-4-hydroxy-N-[(1S)-1-[4-(4-methyl-1,3-thiazol-5-yl)phenyl]ethyl]pyrrolidine-2-carboxamide], the DC50 was 2.5 to 10 nM and the Dmax was more than 75%.
The like results for `CC(C)[C@@H](C(=O)N1C[C@H](O)C[C@H]1C(=O)N[C@@H](C)c1ccc(C#N)cc1)c1cc(N2CCC(CN3CCC(O[C@H]4C[C@H](Oc5cc(N6CC7CCC(C6)N7c6cc(-c7ccccc7O)nnc6N)ccn5)C4)CC3)CC2)no1` [Compound 15, (2S,4R)-N-[(1S)-1-(4-cyanophenyl)ethyl]-4-hydroxy-1-[(2R)-3-methyl-2-{3-[4-({4-[(1r,3r)-3-[(4-{8-[3-amino-6-(2-hydroxyphenyl)pyridazin-4-yl]-3,8-diazabicyclo[3.2.1]octan-3-yl}pyridin-2-yl)oxy]cyclobutoxy]piperidin-1-yl}methyl)piperidin-1-yl]-1,2-oxazol-5-yl}butanoyl]pyrrolidine-2-carboxamide] were, in that order, 2.5 to 10 nM and more than 75%.
On to `Cc1ncsc1-c1ccc([C@H](C)NC(=O)[C@@H]2C[C@@H](O)CN2C(=O)[C@@H](c2cc(OCCN3CCN(CCOc4cc(N5C6CCC5CN(c5cc(-c7ncccc7O)nnc5N)C6)ccn4)[C@H](C)C3)no2)C(C)C)cc1` [Compound 149, (2S,4R)-1-[(2R)-2-(3-{2-[(3R)-4-{2-[(4-{3-[3-amino-6-(3-hydroxypyridin-2-yl)pyridazin-4-yl]-3,8-diazabicyclo[3.2.1]octan-8-yl}pyridin-2-yl)oxy]ethyl}-3-methylpiperazin-1-yl]ethoxy}-1,2-oxazol-5-yl)-3-methylbutanoyl]-4-hydroxy-N-[(1S)-1-[4-(4-methyl-1,3-thiazol-5-yl)phenyl]ethyl]pyrrolidine-2-carboxamide], for which the DC50 was not below 30 nM.
Consider `Cc1ncsc1-c1ccc([C@H](C)NC(=O)[C@@H]2C[C@@H](O)CN2C(=O)[C@@H](c2cc(N3CCC(CN4CCC5(CC4)CC(N4CCC(F)(F)C(CN6C7CCC6CN(c6cc(-c8ccccc8O)nnc6N)C7)C4)C5)CC3)no2)C(C)C)cc1` (stereo partly drawn) [Compound 120, (2S,4R)-1-[(2R)-2-{3-[4-({2-[3-({3-[3-amino-6-(2-hydroxyphenyl)pyridazin-4-yl]-3,8-diazabicyclo[3.2.1]octan-8-yl}methyl)-4,4-difluoropiperidin-1-yl]-7-azaspiro[3.5]nonan-7-yl}methyl)piperidin-1-yl]-1,2-oxazol-5-yl}-3-methylbutanoyl]-4-hydroxy-N-[(1S)-1-[4-(4-methyl-1,3-thiazol-5-yl)phenyl]ethyl]pyrrolidine-2-carboxamide], for which the DC50 is less than 2.5 nM and the Dmax was more than 75%.
Turning to `CC(C)[C@@H](C(=O)N1C[C@H](O)C[C@H]1C(=O)N[C@@H](C)c1ccc(-c2ccnn2C)cc1)c1cc(N2CCC(CN3CCC(O[C@H]4C[C@H](N5CCOC6(CCN(c7cc(-c8ccccc8O)nnc7N)CC6)C5)C4)CC3)CC2)no1` [Compound 28, (2S,4R)-4-hydroxy-N-[(1S)-1-[4-(1-methyl-1H-pyrazol-5-yl)phenyl]ethyl]-1-[(2R)-3-methyl-2-{3-[4-({4-[(1r,3r)-3-{9-[3-amino-6-(2-hydroxyphenyl)pyridazin-4-yl]-1-oxa-4,9-diazaspiro[5.5]undecan-4-yl}cyclobutoxy]piperidin-1-yl}methyl)piperidin-1-yl]-1,2-oxazol-5-yl}butanoyl]pyrrolidine-2-carboxamide], the DC50 was less than 2.5 nM and the Dmax was more than 75%.
Regarding `Cc1ncsc1-c1ccc([C@H](C)NC(=O)[C@@H]2C[C@@H](O)CN2C(=O)[C@@H](c2cc(N3CCN(C(=O)[C@H]4C[C@H](Oc5cc(N6C7CCC6CN(c6cc(-c8ccccc8O)nnc6N)C7)ccn5)C4)CC3)no2)C(C)C)cc1` [Compound 107, (2S,4R)-4-hydroxy-N-[(1S)-1-[4-(4-methyl-1,3-thiazol-5-yl)phenyl]ethyl]-1-[(2R)-3-methyl-2-(3-{4-[(1r,3r)-3-[(4-{3-[3-amino-6-(2-hydroxyphenyl)pyridazin-4-yl]-3,8-diazabicyclo[3.2.1]octan-8-yl}pyridin-2-yl)oxy]cyclobutanecarbonyl]piperazin-1-yl}-1,2-oxazol-5-yl)butanoyl]pyrrolidine-2-carboxamide], the DC50 is not below 30 nM.
Regarding `Cc1ncsc1-c1ccc([C@H](C)NC(=O)[C@@H]2C[C@@H](O)CN2C(=O)[C@@H](c2cc(N3CCC(CN4CCC(O[C@H]5C[C@H](CN6CCC(N7C8CCC7CN(c7cc(-c9ccccc9O)nnc7N)C8)CC6)C5)CC4)CC3)no2)C(C)C)cc1` [Compound 24, (2S,4R)-4-hydroxy-N-[(1S)-1-[4-(4-methyl-1,3-thiazol-5-yl)phenyl]ethyl]-1-[(2R)-3-methyl-2-{3-[4-({4-[(1r,3r)-3-[(4-{3-[3-amino-6-(2-hydroxyphenyl)pyridazin-4-yl]-3,8-diazabicyclo[3.2.1]octan-8-yl}piperidin-1-yl)methyl]cyclobutoxy]piperidin-1-yl}methyl)piperidin-1-yl]-1,2-oxazol-5-yl}butanoyl]pyrrolidine-2-carboxamide], the DC50 was less than 2.5 nM and the Dmax is more than 75%.

As usually defined, the DC50 is the concentration at which degradation of the target reaches its halfway point. The term Dmax denotes the greatest extent of degradation seen.
